Columns and labels:
[1] = tested on: VEGF induced increases in intracellular calcium levels in HUVEC (human umbilical vein endothelial cells); assay: VEGF Stimulated Ca++ Signal in vitro (FLIPR); type: cell-based; conditions: VEGF 5 ng/mL; for IC50: 0.01 to 10.0 μM
How it was run: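 HUVEC loaded with Fluo-4 (45 min, 37° C.), washed, then pre-incubated 30 min with compound (10 μM single dose or 0.01–10.0 μM; 0.1% DMSO) before 5 ng/mL VEGF. Fluorescence at 516 nm read by FLIPR; IC50 from % inhibition of max-min VEGF response.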

[2] = tested on: VEGF-induced EBD extravasation; assay: VEGF-induced Dermal Extravasation in Guinea Pig (Miles Assay); type: in vivo
Procedure: VEGF-induced Dermal Extravasation in Guinea Pig (Miles Assay). Male Hartley guinea pigs (300-600 g) were anesthetized with isofluorane, sheared, and given a single dose of drug or the respective vehicle. The guinea pigs were dosed orally unless indicated otherwise in Table 3. Ten minutes prior to the end of drug treatment, guinea pigs were anesthetized with isofluorane, and 0.5% Evans blue dye (EBD) in PBS (13-15 mg/kg dose of EBD) was injected intravenously. After 5 minutes, triplicate intradermal injections of 100 ng rhVEGF165 in 100 μl PBS and of 100 μl PBS alone were administered on the flank. After 20 minutes, each animal was euthanized with Pentosol, and the skin containing the intradermal injection sites was removed for image analysis.
Using an analog video camera coupled to a PC, an image of each trans-illuminated skin sample was captured, and the integrated optical density of each injection site was measured using ImagePro 4. For each skin sample, the difference between the mean optical density of the VEGF sites and mean optical density of the PBS sites is the measure of VEGF-induced EBD extravasation in that animal. These measured values were averaged per study group to determine the mean VEGF-induced EBD extravasation for each experimental condition, and the group means were then compared to assess inhibition of VEGF-induced EBD extravasation in the drug-treated groups relative to the vehicle-treated controls.
(§1) To determine the dose required for 50% inhibition (ID50), the percent inhibition data was plotted as a function of oral dose, using the ‘best-fit’ analysis within MicroSoft Excel software. The ID50 value was verified visually by using the plotted data (horizontal line from 50% y value, at intersection with best-fit line drop vertical line to x axis (dose)).

[3] = target: T1, cytoplasmic domain of the human VEGF receptor (VEGFR-2) (Homo sapiens, UniProt P35968); assay: KDR Assay; type: biochemical; conditions: His-VEGFR-2; 3.6 μM ATP
T1 construct: The cytoplasmic domain of the human VEGF receptor (VEGFR-2) was expressed as a Histidine-tagged fusion protein; Histidine tag
T1 sequence (P35968 786-1356): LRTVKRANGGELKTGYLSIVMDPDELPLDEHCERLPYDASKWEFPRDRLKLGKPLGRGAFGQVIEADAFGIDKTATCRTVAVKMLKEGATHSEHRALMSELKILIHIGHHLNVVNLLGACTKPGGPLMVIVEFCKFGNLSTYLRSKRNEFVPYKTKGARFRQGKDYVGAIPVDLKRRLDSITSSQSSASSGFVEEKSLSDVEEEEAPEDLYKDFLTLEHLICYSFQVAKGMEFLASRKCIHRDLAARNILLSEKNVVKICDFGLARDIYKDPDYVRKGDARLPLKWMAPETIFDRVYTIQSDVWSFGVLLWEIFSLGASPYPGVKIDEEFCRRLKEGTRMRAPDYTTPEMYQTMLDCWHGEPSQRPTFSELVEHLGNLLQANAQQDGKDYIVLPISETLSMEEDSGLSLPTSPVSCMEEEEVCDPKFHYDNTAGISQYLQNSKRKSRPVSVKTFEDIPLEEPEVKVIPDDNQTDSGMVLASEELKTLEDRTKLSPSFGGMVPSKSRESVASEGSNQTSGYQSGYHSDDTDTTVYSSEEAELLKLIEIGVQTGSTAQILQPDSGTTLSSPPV
How it was run: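 His-tagged human VEGFR-2 cytoplasmic domain from baculovirus-infected insect cells, acting on poly-Glu-Tyr (4:1)-coated plates with 3.6 μM ATP in Hepes pH 7.4 with MgCl2/MnCl2 and 5% final DMSO, 10 min at 25 °C. Phosphotyrosine detected by peroxidase-conjugated antibody ELISA at 492 nm; IC50 from blank-subtracted OD versus concentration.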

[4] = tested on: Laser-induced Choroidal Neovascularization (CNV); assay: Laser-induced Choroidal Neovascularization (CNV) in Rat (CNV Assay); type: in vivo; conditions: 80 mg/kg (sid), corn oil, oral
Procedure: Laser-induced Choroidal Neovascularization (CNV) in Rat (CNV Assay). CNV was induced and quantified in this model as previously described (Edelman and Castro. Exp. Eye Res. 2000; 71:523-533). On day 0, male Brown Norway rats (200-300 g) were anesthetized with 100 mg/kg Ketamine and 10 mg/kg Xylazine, and pupils were dilated with 1% Tropicamide. Using the blue-green setting of a Coherent Novus Argon Laser, 3 laser bums (90 mW for 0.1 s; 100 μm diameter) were given to each eye between the retinal vessels around the optic nerve head. […]
On day 10, rats were sacrificed with 100% CO2, and blood vessels were labeled by vascular perfusion with 10 mg/ml FITC-dextran (MW 2×10^6). Using an epifluorescence microscope (20×) coupled to a spot digital camera and a PC, images were obtained from the flat mounts of the RPE-choroid-sclera from each eye, and the area occupied by hyperfluorescent neovessels within each laser lesion was measured using ImagePro 4 software.
as §1

| Compound | inhibition at 10 µM ([1]; Homo sapiens) [%] | Miles Assay % inhibition ([2]; 75 mg/kg, PEG400, oral) [%] | IC50 [3] [nM] | Miles Assay % inhibition ([2]; 75 mg/kg, corn oil, oral) [%] | CNV Assay % inhibition [4] [%] | IC50 [1] [nM] | IC50 ([1]; Homo sapiens) [nM] | Miles Assay % inhibition ([2]; 40 mg/kg, corn oil, oral) [%] |
| --- | --- | --- | --- | --- | --- | --- | --- | --- |
| Cc1cccc2c1C(=CNc1ccc(N3CC(C)OC(C)C3)cc1)C(=O)N2 (centres unmarked) [Example 220, 3-{[4-(2,6-Dimethyl-morpholin-4-yl)-phenylamino]-methylene}-4-methyl-1,3-dihydro-indol-2-one] | 94.9 | 39 | 60 | – | – | – | – | – |
| CC1CN(c2ccc(NC=C3C(=O)Nc4cc(F)ccc43)cc2)CC(C)O1 (centres unmarked) [Example 229, 3-{[4-(2,6-Dimethyl-morpholin-4-yl)-phenylamino]-methylene}-6-fluoro-1,3-dihydro-indol-2-one] | 97.2 | 97 | 110 | – | – | – | – | – |
| O=C1Nc2ccccc2C1=CNc1ccc(OCCCCN2CCCCC2)cc1 [Example 209, 3-{[4-(4-Piperidin-1-yl-butoxy)-phenylamino]-methylene}-1,3-dihydro-indol-2-one] | 98.6 | 79 | 240 | 84 | 95 | – | – | – |
| CCN(CC)CCCOc1ccc(NC=C2C(=O)Nc3cccc(C)c32)cc1 [Example 231, 3-{[4-(3-Diethylamino-propoxy)-phenylamino]-methylene}-4-methyl-1,3-dihydro-indol-2-one] | 93.3 | – | 70 | 93 | 85 | – | – | – |
| O=C1Nc2ccc(F)cc2C1=CNc1ccc(N2CCOCC2)cc1 [Example 167, 5-Fluoro-3-[(4-morpholin-4-yl-phenylamino)-methylene]-1,3-dihydro-indol-2-one] | 95.7 | 31 | 190 | – | – | – | – | – |
| CC1CN(c2ccc(NC=C3C(=O)Nc4ccc(F)cc43)cc2)CC(C)O1 (centres unmarked) [Example 219, 3-{[4-(2,6-Dimethyl-morpholin-4-yl)-phenylamino]-methylene}-5-fluoro-1,3-dihydro-indol-2-one] | 97.4 | 28 | 220 | – | – | 620 | ≤ 1000 | – |
| O=C1Nc2ccccc2C1=CNc1ccc(OCCCN2CCOCC2)cc1 [Example 215, 3-{[4-(3-Morpholin-4-yl-propoxy)-phenylamino]-methylene}-1,3-dihydro-indol-2-one] | 96.7 | 53 | 340 | – | – | 670 | ≤ 1000 | – |
| CCN(CC)CCCCOc1ccc(NC=C2C(=O)Nc3ccccc32)cc1 [Example 207, 3-{[4-(4-Diethylamino-butoxy)-phenylamino]-methylene}-1,3-dihydro-indol-2-one] | 98.6 | – | 240 | 80 | – | 510 | ≤ 1000 | – |
| CN1CCN(CCCCOc2ccc(NC=C3C(=O)Nc4ccccc43)cc2)CC1 [Example 208, 3-({4-[4-(4-Methyl-piperazin-1-yl)-butoxy]-phenylamino}-methylene)-1,3-dihydro-indol-2-one] | 99 | – | 260 | 32 | – | 530 | ≤ 1000 | – |
| Cc1cccc2c1C(=CNc1ccc(OCCCN3CCCCC3)cc1)C(=O)N2 [Example 238, 4-Methyl-3-{[4-(3-piperidin-1-yl-propoxy)-phenylamino]-methylene}-1,3-dihydro-indol-2-one] | 98.4 | – | 60 | 60 | – | 780 | ≤ 1000 | – |
| O=C1Nc2cc(F)ccc2C1=CNc1ccc(NCCN2CCOCC2)cc1 [Example 243, 6-Fluoro-3-{[4-(2-morpholin-4-yl-ethylamino)-phenylamino]-methylene}-1,3-dihydro-indol-2-one] | 95.6 | – | 110 | 100 | – | – | – | – |
| CCN(CC)CCOc1ccc(NC=C2C(=O)Nc3cc(F)ccc32)cc1 [Example 266, 3-{[4-(2-Diethylamino-ethoxy)-phenylamino]-methylene}-6-fluoro-1,3-dihydro-indol-2-one] | – | – | 170 | – | – | – | – | 82 |
| CCN(CC)CCCOc1ccc(NC=C2C(=O)Nc3cc(F)ccc32)cc1F [Example 250, 3-{[4-(3-Diethylamino-propoxy)-3-fluoro-phenylamino]-methylene}-6-fluoro-1,3-dihydro-indol-2-one] | – | – | 150 | 62 | – | – | – | – |
| CN(C)c1ccc(NC=C2C(=O)Nc3ccccc32)cc1 [Example 156, 3-[(4-Dimethylamino-phenylamino)-methylene]-1,3-dihydro-indol-2-one] | 95.4 | 100 | 510 | – | – | 830 | ≤ 1000 | – |
| O=C1Nc2ccccc2C1=CNc1ccc(OCCCN2CCCC2)cc1 [Example 216, 3-{[4-(3-Pyrrolidin-1-yl-propoxy)-phenylamino]-methylene}-1,3-dihydro-indol-2-one] | 95.3 | 91 | 340 | – | – | 570 | ≤ 1000 | – |
| CN1CCN(c2ccc(NC=C3C(=O)Nc4ccccc43)cc2)CC1 [Example 157, 3-{[4-(4-Methyl-piperazin-1-yl)-phenylamino]-methylenel}-1,3-dihydro-indol-2-one] | 97.9 | 38 | 250 | – | – | – | – | – |
| O=C1Nc2ccccc2C1=CNc1ccc(OCCCCN2CCOCC2)cc1 [Example 206, 3-{[4-(4-Morpholin-4-yl-butoxy)-phenylamino]-methylene}-1,3-dihydro-indol-2-one] | 96.3 | – | 240 | 74 | – | 670 | ≤ 1000 | – |
| O=C1Nc2ccccc2C1=CNc1ccc(OCCCCN2CCCC2)cc1 [Example 179, 3-{[4-(4-Pyrrolidin-1-yl-butoxy)-phenylamino]-methylene}-1,3-dihydro-indol-2-one] | 97.3 | 65 | 310 | – | – | 640 | ≤ 1000 | – |
| O=C1Nc2cc(F)ccc2C1=CNc1ccc(OCCCCN2CCCCC2)cc1 [Example 247, 6-Fluoro-3-{[4-(4-piperidin-1-yl-butoxy)-phenylamino]-methylene}-1,3-dihydro-indol-2-one] | – | – | 200 | 45 | – | – | – | – |
| Cc1cccc2c1C(=CNc1ccc(N)cc1)C(=O)N2 [Example 181, 3-[(4-Amino-phenylamino)-methylene]-4-methyl-1,3-dihydro-indol-2-one] | 97.7 | 38 | 350 | – | – | – | – | – |
| CCN(CC)CCCOc1ccc(NC=C2C(=O)Nc3ccccc32)cc1 [Example 214, 3-{[14-(3-Diethylamino-propoxy)-phenylamino]-methylene}-1,3-dihydro-indol-2-one] | 97.3 | 61 | 330 | 78 | – | – | – | – |
| Nc1cccc(NC=C2C(=O)Nc3ccccc32)c1 [Example 211, 3-[(3-Amino-phenylamino)-methylene]-1,3-dihydro-indo1-2-one] | 96.7 | 38 | 460 | – | – | 660 | ≤ 1000 | – |
| O=C1Nc2cc(F)ccc2C1=CNc1ccc(OCCN2CCCC2)cc1 [Example 271, 6-Fluoro-3-{[4-(2-pyrrolidin-1-yl-ethoxy)-phenylamino]-methylene}-1,3-dihydro-indol-2-one] | – | – | 130 | – | – | – | – | 98 |

— patent US20030225152A1, “3-(Arylamino)methylene-1, 3-dihydro-2h-indol-2-ones as kinase inhibitors” (priority 2001, published 2003)
